# Measurements reported in ChEMBL document CHEMBL1143685, “Sulfated glucosamine inhibits MMP-2 and MMP-9 expressions in human fibrosarcoma cells” (Bioorg Med Chem, 2007).
# Calls of active or inactive are those of the source. The rule behind the calls is not given here.
# Experiments:
# HT-1080 [1] = assay: Toxicity against human HT1080 cells assessed as cell viability after 24 hrs by MTT assay; type: cell-based; conditions: ht-1080, 24 h
# MRC5 = assay: Toxicity against human MRC5 cells assessed as cell viability after 24 hrs by MTT assay; type: cell-based; conditions: mrc5, 24 h
# HT-1080 [2] = assay: Inhibition of MMP9 expression in human HT1080 cells; type: functional, cell-based
# HT-1080 [3] = assay: Inhibition of MMP2 expression in human HT1080 cells; type: functional, cell-based
# HT-1080 [4] = assay: Inhibition of NF-kappaB promoter activity in human HT1080 cells; type: functional, cell-based
# HT-1080 [5] = assay: Inhibition of PMA-stimulated activator protein-1 promotor activity in human HT1080 cells; type: functional, cell-based
smiles,measurement,setting,value
N[C@@H](C=O)[C@@H](O)[C@H](O)[C@H](O)COS(=O)(=O)O,Activity,HT-1080 [1],Active
same,Activity,MRC5,Active
same,Activity,HT-1080 [2],Dose-dependent effect
same,Activity,HT-1080 [3],Dose-dependent effect
same,Activity,HT-1080 [4],Dose-dependent effect
same,Activity,HT-1080 [5],inactive
